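Five concentrations, 48 hours, 96-well plates. GI50 is the concentration that inhibits growth by half.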 The source made the active and inactive calls. No stated cut-off is given here; in the data, active = GI50 up to about 1.1 µM and inactive = higher.
Tests used:
Test in all cases: NCI anticancer screen, dose series, 48 h
SF-539 = tested on: SF-539
OVCAR-4 = tested on: OVCAR-4
KM12 = tested on: KM12
HL-60 = tested on: HL-60
UACC-62 = tested on: UACC-62
M14 = tested on: M14
SK-MEL-5 = tested on: SK-MEL-5
NCI-H23 = tested on: NCI-H23
SF-295 = tested on: SF-295
HOP-92 = tested on: HOP-92
UACC-257 = tested on: UACC-257
NCI-H460 = tested on: NCI-H460
OVCAR-3 = tested on: OVCAR-3
SN12C = tested on: SN12C
SNB-19 = tested on: SNB-19
ACHN = tested on: ACHN
OVCAR-8 = tested on: OVCAR-8
HT-29 = tested on: HT-29
CAKI-1 = tested on: CAKI-1
K562 = tested on: K562

Compound	GI50 (SF-539)	GI50 (OVCAR-4)	GI50 (KM12)	GI50 (HL-60)	GI50 (UACC-62)	GI50 (M14)	GI50 (SK-MEL-5)	GI50 (NCI-H23)	GI50 (SF-295)	GI50 (HOP-92)	GI50 (UACC-257)	GI50 (NCI-H460)	GI50 (OVCAR-3)	GI50 (SN12C)	GI50 (SNB-19)	GI50 (ACHN)	GI50 (OVCAR-8)	GI50 (HT-29)	GI50 (CAKI-1)	GI50 (K562)
COC(=O)C1C(C(=O)OC)C1(Br)CBr (configuration not stated)	40.6 µM (inactive)	39.7 µM (inactive)	> 100 µM (inactive)	43.2 µM (inactive)	> 100 µM (inactive)	31.5 µM (inactive)	> 99.5 µM (inactive)	70.1 µM (inactive)	> 100 µM (inactive)	22.9 µM (inactive)	> 100 µM (inactive)	> 100 µM (inactive)	89.3 µM (inactive)	27.5 µM (inactive)	> 100 µM (inactive)	25.8 µM (inactive)	32.5 µM (inactive)	24 µM (inactive)	17.8 µM (inactive)	
O=C1CSC2(CC(/C=C/c3cccc([N+](=O)[O-])c3)=NN2c2cccc(S(=O)(=O)O)c2)N1c1nc2ccccc2s1 (configuration not stated)	29.6 µM (inactive)	25.2 µM (inactive)	22 µM (inactive)	28.1 µM (inactive)	19.1 µM (inactive)	30.7 µM (inactive)	28.1 µM (inactive)	16.7 µM (inactive)		9.46 µM (inactive)	38.9 µM (inactive)	21.2 µM (inactive)		22.4 µM (inactive)	21 µM (inactive)	25.8 µM (inactive)	13.8 µM (inactive)	31.4 µM (inactive)	49.7 µM (inactive)	28.6 µM (inactive)
COc1ccc(C(CC(=O)c2cccs2)C(=O)c2ccc3c(c2)OCO3)cc1 (configuration not stated)	> 100 µM (inactive)	> 100 µM (inactive)	> 100 µM (inactive)	> 100 µM (inactive)	> 100 µM (inactive)	> 100 µM (inactive)	> 100 µM (inactive)	> 100 µM (inactive)			> 100 µM (inactive)	> 100 µM (inactive)		> 100 µM (inactive)		> 100 µM (inactive)	> 100 µM (inactive)		> 100 µM (inactive)	> 100 µM (inactive)
COc1ccc(-c2c(-c3ccccc3)c(C)nc3nc(SC)nc(SC)c23)cc1OC	5.2 µM (inactive)		18.1 µM (inactive)	3.14 µM (inactive)	11.3 µM (inactive)	22.8 µM (inactive)	4.76 µM (inactive)	28.8 µM (inactive)	7.55 µM (inactive)	4.39 µM (inactive)	21.5 µM (inactive)	2.12 µM (inactive)	14.4 µM (inactive)	7.4 µM (inactive)	26.7 µM (inactive)	19.9 µM (inactive)		5.71 µM (inactive)	0.764 µM (active)	4.54 µM (inactive)
CCOC(=O)CCC(NC(=O)c1ccc(Nc2nc3cc(C(F)(F)F)ccc3nc2C(=O)OCC)cc1)C(=O)OCC (configuration not stated)	12.6 µM (inactive)	3.54 µM (inactive)	> 10 µM (inactive)	> 100 µM (inactive)	9.16 µM (inactive)	4.51 µM (inactive)	23.9 µM (inactive)	16 µM (inactive)	5.74 µM (inactive)	0.975 µM (active)	11 µM (inactive)	18 µM (inactive)	13.8 µM (inactive)	10.7 µM (inactive)	10.7 µM (inactive)	13.8 µM (inactive)	5.45 µM (inactive)	4.18 µM (inactive)		95.3 µM (inactive)
C[C@H]1COC2(c3ccccc3)CCC(=O)N12 (some centres not stated)	> 100 µM (inactive)	> 100 µM (inactive)	> 100 µM (inactive)		> 100 µM (inactive)		> 100 µM (inactive)	> 100 µM (inactive)	> 100 µM (inactive)	> 100 µM (inactive)	> 100 µM (inactive)	> 100 µM (inactive)	> 100 µM (inactive)	> 100 µM (inactive)	> 100 µM (inactive)	> 100 µM (inactive)	> 100 µM (inactive)	> 100 µM (inactive)	> 100 µM (inactive)	> 100 µM (inactive)
Nc1nccc2c1ncn2[C@H]1C[C@H](O)[C@@H](CO)O1		> 100 µM (inactive)	> 100 µM (inactive)		> 100 µM (inactive)	> 100 µM (inactive)	> 100 µM (inactive)	> 100 µM (inactive)	> 100 µM (inactive)	> 100 µM (inactive)	> 100 µM (inactive)	> 100 µM (inactive)	> 100 µM (inactive)	> 100 µM (inactive)	> 100 µM (inactive)		> 100 µM (inactive)	> 100 µM (inactive)	> 100 µM (inactive)	> 100 µM (inactive)
Cn1c2ncccc2n2c(=O)cc(O)cc12	> 100 µM (inactive)	40 µM (inactive)	65.8 µM (inactive)		77.3 µM (inactive)	> 100 µM (inactive)	> 100 µM (inactive)	> 100 µM (inactive)	97.9 µM (inactive)	18.2 µM (inactive)	> 100 µM (inactive)	60.5 µM (inactive)	40.8 µM (inactive)		> 100 µM (inactive)	> 100 µM (inactive)	> 100 µM (inactive)	46.6 µM (inactive)	32.4 µM (inactive)	> 100 µM (inactive)
Cc1c(/C=N/NC(=O)c2ccccc2O)c(=O)n(-c2ccccc2)n1C	> 100 µM (inactive)	> 100 µM (inactive)	> 100 µM (inactive)	28.1 µM (inactive)	> 100 µM (inactive)	> 100 µM (inactive)		> 100 µM (inactive)	> 100 µM (inactive)	> 100 µM (inactive)	> 100 µM (inactive)	47.1 µM (inactive)	> 100 µM (inactive)	> 100 µM (inactive)	> 100 µM (inactive)	> 100 µM (inactive)	> 100 µM (inactive)	> 100 µM (inactive)		> 100 µM (inactive)
COC(=O)C1=COC2OC3CC1C2C(C)O3 (configuration not stated)	> 100 µM (inactive)	> 100 µM (inactive)	> 100 µM (inactive)	> 100 µM (inactive)	> 100 µM (inactive)	> 100 µM (inactive)	> 100 µM (inactive)	> 100 µM (inactive)	> 100 µM (inactive)	> 100 µM (inactive)	> 100 µM (inactive)	> 100 µM (inactive)	> 100 µM (inactive)	> 100 µM (inactive)	> 100 µM (inactive)	> 100 µM (inactive)	> 100 µM (inactive)	> 100 µM (inactive)	> 100 µM (inactive)	
O=c1cc(O)ccn1C1C=C(CO)C(O)C1O (configuration not stated)	> 625 µM (inactive)	> 625 µM (inactive)	> 625 µM (inactive)	183 µM (inactive)	> 625 µM (inactive)		> 625 µM (inactive)		> 625 µM (inactive)	192 µM (inactive)		131 µM (inactive)	> 625 µM (inactive)	586 µM (inactive)	> 625 µM (inactive)		> 625 µM (inactive)	> 625 µM (inactive)	> 625 µM (inactive)	
O=c1[nH]c2ccccc2n1CCCN1CCC(n2c(=O)[nH]c3cc(Cl)ccc32)CC1 [DOMPERIDONE]		17.2 µM (inactive)	16.9 µM (inactive)	17.3 µM (inactive)	18.3 µM (inactive)	16 µM (inactive)	14.6 µM (inactive)	17.3 µM (inactive)		22.2 µM (inactive)	16.9 µM (inactive)	17.4 µM (inactive)	17.9 µM (inactive)	16.3 µM (inactive)		18.8 µM (inactive)	18.3 µM (inactive)	14.6 µM (inactive)	15.7 µM (inactive)	21.4 µM (inactive)
COc1ccc(OC)c2c1C(=O)C(Cl)=C(N1CCN(CCOCCO)CC1)C2=O	17.8 µM (inactive)	17.9 µM (inactive)	20.5 µM (inactive)	1.08 µM (active)	10.5 µM (inactive)	17.2 µM (inactive)	16.5 µM (inactive)	7.6 µM (inactive)	18.7 µM (inactive)	17.7 µM (inactive)	17.3 µM (inactive)	18.8 µM (inactive)	17.3 µM (inactive)	12.4 µM (inactive)	16 µM (inactive)	16.6 µM (inactive)	16.6 µM (inactive)	6 µM (inactive)		1.91 µM (inactive)
CC1(C)CCC[C@]2(C)[C@@H](C=O)C(C=O)=CC[C@@H]12 [POLYGODIAL]	19.3 µM (inactive)	15.8 µM (inactive)	14.7 µM (inactive)	18.4 µM (inactive)	18.4 µM (inactive)	17.5 µM (inactive)	15.6 µM (inactive)	28 µM (inactive)	21.9 µM (inactive)	20.6 µM (inactive)	17.1 µM (inactive)		14.9 µM (inactive)	20.6 µM (inactive)	18.2 µM (inactive)	16.9 µM (inactive)	16.4 µM (inactive)	16.4 µM (inactive)	6.82 µM (inactive)	
N#C/C(=C\c1ccc(C(O)P(=O)(O)O)cc1)C(N)=O (configuration not stated)	35.3 µM (inactive)	> 100 µM (inactive)	> 100 µM (inactive)	6.01 µM (inactive)	7.83 µM (inactive)	> 100 µM (inactive)	> 100 µM (inactive)	> 100 µM (inactive)	> 100 µM (inactive)	> 100 µM (inactive)	> 100 µM (inactive)	6.44 µM (inactive)	> 100 µM (inactive)	> 100 µM (inactive)	> 100 µM (inactive)	14.5 µM (inactive)	> 100 µM (inactive)	> 100 µM (inactive)		> 100 µM (inactive)

From ChEMBL document CHEMBL1201862, “PubChem BioAssay data set” (2004)
